17 compounds from patent US20130102593A1, “PYRROLIDINE COMPOUNDS WHICH INHIBIT BETA-SECRETASE ACTIVITY AND METHODS OF USE THEREOF” (priority 2008, published 2013) can be followed below.

Molecules are shown by their SMILES. Bounds are passed on as bounds.

The test system of the assay is Aβ production. The experiment in a line: Cellular Aβ IC50 determination (memapsin 2 activity in a cellular assay of Aβ production). The class given is cell-based, Chinese hamster. The conditions noted are these: Cricetulus griseus; Chinese hamster ovary cells over-expressing human APP695 with London and Swedish mutations, 24 h, Aβ40 sandwich ELISA; read-out: M2 IC50. The protocol:
The potency of compounds against memapsin 2 activity was determined in a cellular assay of Aβ production. […] Chinese hamster ovary cells that over-express human APP695 with the London and Swedish mutations were seeded in multi-well plates at 10% confluency. Compounds are dissolved in DMSO to concentrations near 1 mM, and diluted into culture media to a final concentration near 4 μM (final 0.4% DMSO). Compounds were diluted serially and applied to cells in multi-well plates 48 h after seeding. Incubation was continued in 5% CO2 at 37° C. for 24 h. Aliquots were removed and assayed for […] content using a sandwich ELISA (BioSource International). Amount of Aβ40 over the range of concentration of compounds, relative to control incubations, were fit to a 4-parameter IC50 model.
In the case of `Cc1csc([C@H]2CCCN2C(=O)c2cc(CF)cc(C(=O)N[C@H](Cc3ccccc3)[C@H](O)[C@H]3C[C@@H](OCc4ccccc4)CN3)c2)n1` [1-45, N-((1R,2R)-1-((2R,4R)-4-(benzyloxy)pyrrolidin-2-yl)-1-hydroxy-3-phenylpropan-2-yl)-3-(fluoromethyl)-5-((R)-2-(4-methylthiazol-2-yl)pyrrolidine-1-carbonyl)benzamide], the IC50 is above 1000 nM.
As for `Cc1csc(CN(C)C(=O)c2cccc(C(=O)N[C@@H](Cc3cc(F)cc(F)c3)[C@H](O)[C@H]3CCCN3)c2)n1` [1-41, N1-((1R,2S)-3-(3,5-difluorophenyl)-1-hydroxy-1-((R)-pyrrolidin-2-yl)propan-2-yl)-N3-methyl-N3-((4-methylthiazol-2-yl)methyl)isophthalamide], the figure is above 1000 nM; as for `Cc1cc(C(=O)N[C@@H](Cc2ccccc2)[C@H](O)CNCc2cncc(C(C)(C)C)c2)cc(C(=O)N2CCC[C@@H]2c2nc(C)co2)c1` [2-3, N-((2S,3R)-4-((5-tert-butylpyridin-3-yl)methylamino)-3-hydroxy-1-phenylbutan-2-yl)-3-methyl-5-((R)-2-(4-methyloxazol-2-yl)pyrrolidine-1-carbonyl)benzamide, reference compound], below 500 nM; as for `Cc1cc(C(=O)N[C@@H](Cc2ccccc2)[C@H](O)[C@H]2CCCN2)cc(C(=O)N2CCC[C@@H]2c2nc(C)co2)c1` [1-8, N-((1R,2S)-1-hydroxy-3-phenyl-1-((R)-pyrrolidin-2-yl)propan-2-yl)-3-methyl-5-((R)-2-(4-methyloxazol-2-yl)pyrrolidine-1-carbonyl)benzamide], above 1000 nM.
As for `COc1cc(C(=O)N[C@@H](Cc2ccccc2)[C@H](O)[C@H]2CCCN2)cc(C(=O)N2CCC[C@@H]2c2nc(C)cs2)c1` [1-34, N-((1R,2S)-1-hydroxy-3-phenyl-1-((R)-pyrrolidin-2-yl)propan-2-yl)-3-methoxy-5-((R)-2-(4-methylthiazol-2-yl)pyrrolidine-1-carbonyl)benzamide], the figure is above 1000 nM; as for `Cc1cc(C(=O)N[C@@H](Cc2ccccc2)[C@H](O)CNCc2cncc(C(C)C)c2)cc(C(=O)N2CCC[C@@H]2c2nc(C)cs2)c1` [2-8, N-((2S,3R)-3-hydroxy-4-((5-isopropylpyridin-3-yl)methylamino)-1-phenylbutan-2-yl)-3-methyl-5-((R)-2-(4-methylthiazol-2-yl)pyrrolidine-1-carbonyl)benzamide, reference compound], below 500 nM.
Next, `Cc1csc([C@H]2CCCN2C(=O)c2cc(C(=O)N[C@@H](Cc3ccccc3)[C@H](O)CNCc3cncc(C(C)C)c3)cc(-c3ccco3)c2)n1` [2-2, 3-(furan-2-yl)-N-((2S,3R)-3-hydroxy-4-((5-isopropylpyridin-3-yl)methylamino)-1-phenylbutan-2-yl)-5-((R)-2-(4-methylthiazol-2-yl)pyrrolidine-1-carbonyl)benzamide, reference compound]: below 500 nM.
For `CCn1cc(CNC[C@@H](O)[C@H](Cc2ccccc2)NC(=O)c2cc(C)cc(C(=O)N3CCC[C@@H]3c3nc(C)co3)c2)cn1` [2-5, N-((2S,3R)-4-((1-ethyl-1H-pyrazol-4-yl)methylamino)-3-hydroxy-1-phenylbutan-2-yl)-3-methyl-5-((R)-2-(4-methyloxazol-2-yl)pyrrolidine-1-carbonyl)benzamide, reference compound], the IC50 was below 500 nM.
In the case of `Cc1coc([C@H]2CCCN2C(=O)c2cccc(C(=O)N[C@@H](Cc3ccccc3)[C@H](O)CNCc3cncc(C(C)(C)C)c3)c2)n1` [2-4, N-((2S,3R)-4-((5-tert-butylpyridin-3-yl)methylamino)-3-hydroxy-1-phenylbutan-2-yl)-3-((R)-2-(4-methyloxazol-2-yl)pyrrolidine-1-carbonyl)benzamide, reference compound], the IC50 was below 500 nM.
Next, `Cc1csc(CN(C(=O)c2cccc(C(=O)N[C@@H](Cc3ccccc3)[C@H](O)CNCc3cccc(C(F)(F)F)c3)c2)C2CC2)n1` [2-9, N1-cyclopropyl-N3-((2S,3R)-3-hydroxy-1-phenyl-4-(3-(trifluoromethyl)benzylamino)butan-2-yl)-N1-((4-methylthiazol-2-yl)methyl)isophthalamide, reference compound]: below 500 nM; `Cc1csc([C@H]2CCCN2C(=O)c2cc(C(=O)N[C@@H](Cc3ccccc3)[C@H](O)[C@H]3CCCN3)cc(-c3ncco3)c2)n1` [1-19, N-((1R,2S)-1-hydroxy-3-phenyl-1-((R)-pyrrolidin-2-yl)propan-2-yl)-3-((R)-2-(4-methylthiazol-2-yl)pyrrolidine-1-carbonyl)-5-(oxazol-2-yl)benzamide]: below 500 nM; `Cc1csc([C@H]2CCCN2C(=O)c2cc(C(=O)N[C@@H](Cc3ccccc3)[C@H](O)[C@H]3CCCN3)cc(N(C)C)c2)n1` [1-42, 3-(dimethylamino)-N-((1R,2S)-1-hydroxy-3-phenyl-1-((R)-pyrrolidin-2-yl)propan-2-yl)-5-((R)-2-(4-methylthiazol-2-yl)pyrrolidine-1-carbonyl)benzamide]: above 1000 nM.
Consider `Cc1csc([C@H]2CCCN2C(=O)c2cc(CF)cc(C(=O)N[C@@H](Cc3ccccc3)[C@H](O)[C@H]3C[C@@H](OCc4ccccc4)CN3)c2)n1` [1-36, N-((1R,2S)-1-((2R,4R)-4-(benzyloxy)pyrrolidin-2-yl)-1-hydroxy-3-phenylpropan-2-yl)-3-(fluoromethyl)-5-((R)-2-(4-methylthiazol-2-yl)pyrrolidine-1-carbonyl)benzamide], for which the IC50 was below 500 nM.
As for `Cc1csc(CN(C)C(=O)c2cccc(C(=O)N[C@@H](Cc3ccccc3)[C@H](O)[C@H]3CCCN3C(=O)OC(C)(C)C)c2)n1` [1-1, (R)-tert-butyl 2-((1S,2S)-1-hydroxy-2-(3-(methyl((4-methylthiazol-2-yl)methyl)carbamoyl)benzamido)-3-phenylpropyl)pyrrolidine-1-carboxylate], the figure is above 1000 nM; as for `Cc1csc([C@H]2CCCN2C(=O)c2cncc(C(=O)N[C@@H](Cc3ccccc3)[C@H](O)CNCc3cc(Cl)nc(N(C)C)c3)c2)n1` [2-1, N-((2S,3R)-4-((2-chloro-6-(dimethylamino)pyridin-4-yl)methylamino)-3-hydroxy-1-phenylbutan-2-yl)-5-((R)-2-(4-methylthiazol-2-yl)pyrrolidine-1-carbonyl)nicotinamide, reference compound], below 500 nM.
As for `Cc1csc([C@H]2CCCN2C(=O)c2cccc(C(=O)N[C@@H](Cc3ccccc3)[C@H](O)[C@H]3CC[C@@H](C)N3)c2)n1` [1-51, N-((1R,2S)-1-hydroxy-1-((2R,5R)-5-methylpyrrolidin-2-yl)-3-phenylpropan-2-yl)-3-((R)-2-(4-methylthiazol-2-yl)pyrrolidine-1-carbonyl)benzamide], the figure is above 1000 nM.
For the compound `Cc1csc([C@H]2CCCN2C(=O)c2cccc(C(=O)N[C@@H](Cc3ccccc3)[C@H](O)[C@H]3C[C@@H](OCc4ccccc4)CN3)c2)n1` [1-22, N-((1R,2S)-1-((2R,4R)-4-(benzyloxy)pyrrolidin-2-yl)-1-hydroxy-3-phenylpropan-2-yl)-3-((R)-2-(4-methylthiazol-2-yl)pyrrolidine-1-carbonyl)benzamide], the IC50 was below 500 nM.

What is called IC50 is the point on the concentration scale where inhibition reaches its midpoint.
